Measured values from patent US20120101100A1 (priority 2008, published 2012).
≈ marks a conversion by molar mass, not a printed value. Counter-ions that a name gives are not always drawn.

Key:
S. aureus GyrB ATPase = S. aureus GyrB ATPase (Staphylococcus aureus, UniProt P0A0K8); test: S. aureus (SAU) GyrB ATPase inhibition, malachite green phosphate detection (E. coli GyrA + S. aureus GyrB); type: biochemical; settings: for inhibition at 1 µM: compound concentration of 1.0 μM unless otherwise noted, average value where assay was carried out more than once, read-out: S. aureus (SAU) GyrB ATPase % Inhibition
In short: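 Phosphate from ATP hydrolysis (500 μM ATP) read as malachite green/molybdate absorbance at 650 nm after acid quench. Reaction: 1.25 nM S. aureus GyrB plus 1.25 nM E. coli GyrA, sheared DNA, Hepes pH 7.5 with Mg2+. IC50 fitted over 10 concentrations, normalised to DMSO (2%) and novobiocin (2 μM) controls.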

Streptococcus pneumoniae = test: Bacterial susceptibility testing in liquid media (MIC); type: cell-based; settings: against Streptococcus pneumoniae; lowest concentration reducing growth by 80% or more; 37° C., 24 hrs
Description: Compounds were tested for antimicrobial activity by susceptibility testing in liquid media. Compounds were dissolved in dimethylsulfoxide and tested in 10 doubling dilutions in the susceptibility assays. The organisms used in the assay were grown overnight on suitable agar media and then suspended in a liquid medium appropriate for the growth of the organism. The suspension was a 0.5 McFarland and a further 1 in 10 dilution was made into the same liquid medium to prepare the final organism suspension in 100 μL. Plates were incubated under appropriate conditions at 37° C. for 24 hrs prior to reading. The Minimum Inhibitory Concentration was determined as the lowest drug concentration able to reduce growth by 80% or more.

Sequence of S. aureus GyrB ATPase (P0A0K8 whole entry): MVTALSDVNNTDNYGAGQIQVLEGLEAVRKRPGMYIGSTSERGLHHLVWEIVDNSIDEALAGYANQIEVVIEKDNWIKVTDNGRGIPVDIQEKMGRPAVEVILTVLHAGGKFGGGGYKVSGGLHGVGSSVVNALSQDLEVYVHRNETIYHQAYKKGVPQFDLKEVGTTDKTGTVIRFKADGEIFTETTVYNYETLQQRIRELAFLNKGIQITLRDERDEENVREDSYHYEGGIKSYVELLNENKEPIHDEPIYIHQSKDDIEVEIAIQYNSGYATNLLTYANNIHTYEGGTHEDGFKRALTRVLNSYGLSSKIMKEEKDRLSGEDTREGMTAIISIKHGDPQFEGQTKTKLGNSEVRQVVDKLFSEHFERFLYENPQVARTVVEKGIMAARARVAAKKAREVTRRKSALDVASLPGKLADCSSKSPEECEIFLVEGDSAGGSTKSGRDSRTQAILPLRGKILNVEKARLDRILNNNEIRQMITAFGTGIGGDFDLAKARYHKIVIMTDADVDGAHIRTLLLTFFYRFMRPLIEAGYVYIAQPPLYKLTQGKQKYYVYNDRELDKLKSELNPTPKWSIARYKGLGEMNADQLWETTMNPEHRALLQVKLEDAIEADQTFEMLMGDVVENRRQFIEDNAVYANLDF
Sequence of S. aureus GyrB ATPase (P0AES4 whole entry, further chain): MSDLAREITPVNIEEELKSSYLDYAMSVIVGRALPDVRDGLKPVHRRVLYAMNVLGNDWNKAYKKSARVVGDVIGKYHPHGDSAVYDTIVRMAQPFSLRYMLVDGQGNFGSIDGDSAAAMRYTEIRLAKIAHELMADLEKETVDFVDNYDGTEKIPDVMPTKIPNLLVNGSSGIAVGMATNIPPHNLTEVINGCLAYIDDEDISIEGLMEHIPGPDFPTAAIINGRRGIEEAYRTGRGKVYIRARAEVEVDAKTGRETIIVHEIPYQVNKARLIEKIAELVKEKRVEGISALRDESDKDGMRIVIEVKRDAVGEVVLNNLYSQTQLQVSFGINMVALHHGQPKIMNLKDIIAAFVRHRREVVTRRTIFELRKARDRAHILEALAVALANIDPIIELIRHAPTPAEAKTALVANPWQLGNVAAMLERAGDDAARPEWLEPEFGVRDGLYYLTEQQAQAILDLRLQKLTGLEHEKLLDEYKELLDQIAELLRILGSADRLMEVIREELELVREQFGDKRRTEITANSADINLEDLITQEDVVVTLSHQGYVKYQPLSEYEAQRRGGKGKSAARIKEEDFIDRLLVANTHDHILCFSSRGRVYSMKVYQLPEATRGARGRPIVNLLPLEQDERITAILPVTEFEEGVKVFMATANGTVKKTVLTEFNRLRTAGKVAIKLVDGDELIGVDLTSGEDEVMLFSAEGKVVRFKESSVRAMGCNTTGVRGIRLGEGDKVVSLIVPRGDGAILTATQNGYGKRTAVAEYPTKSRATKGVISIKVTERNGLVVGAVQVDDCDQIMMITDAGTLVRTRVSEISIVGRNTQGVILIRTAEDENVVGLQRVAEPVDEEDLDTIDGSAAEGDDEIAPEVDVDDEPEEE

Structure (SMILES) | IC50 (S. aureus GyrB ATPase; 10 compound concentrations, 500 μM ATP) | inhibition at 1 µM (S. aureus GyrB ATPase) | MIC (Streptococcus pneumoniae)
CCNC(=O)Nc1cc(-c2nc(C(F)(F)F)cs2)c(-c2cccnc2)cn1 [Example 14, 1-Ethyl-3-(4-(4-(trifluoromethyl)thiazol-2-yl)-3,3′-bipyridin-6-yl)urea] | 0.01 µM | 86% | 0.39 µM (≈ 0.153 µg/mL)
CCNC(=O)Nc1cc(-c2nc(-c3ccccc3)cs2)c(-c2ccnc(-c3nnc(C)o3)c2)cn1 [Example 96, 1-ethyl-3-(2′-(5-methyl-1,3,4-oxadiazol-2-yl)-4-(4-phenylthiazol-2-yl)-3,4′-bipyridin-6-yl)urea] | – | 100% | –
CCNC(=O)Nc1cc(-c2nc(C(F)(F)F)cs2)c(-c2cc(-c3n[nH]c(=O)o3)cnc2OC(C)CN(C)C)cn1 (stereo not drawn) [Example 118] | – | 118% | –
CCNC(=O)Nc1cc(-c2nc(C(F)(F)F)cs2)c(-c2cncc(-c3n[nH]c(=O)[nH]3)c2)cn1 [Example 135, 1-Ethyl-3-(5′-(5-oxo-4,5-dihydro-1H-1,2,4-triazol-3-yl)-4-(4-(trifluoromethyl)thiazol-2-yl)-3,3′-bipyridin-6-yl)urea] | – | 101% | –
CCNC(=O)Nc1cc(-c2nc(-c3cnn(C)c3)cs2)c(-c2cc(-c3n[nH]c(=O)o3)cnc2OCC2CC2)cn1 [Example 221] | – | 99% | –
CCNC(=O)Nc1cc(-c2nc(C(F)(F)F)cs2)c(-c2cncc(-c3nnc([C@H]4COCCN4)o3)c2)cn1 [Example 240, (R)-1-ethyl-3-(5′-(5-(morpholin-3-yl)-1,3,4-oxadiazol-2-yl)-4-(4-(trifluoromethyl)thiazol-2-yl)-3,3′-bipyridin-6-yl)urea] | – | 95% | –
CCNC(=O)Nc1cc(-c2nc(C(F)(F)F)cs2)c(-c2cncc(-c3nn(C(=O)N4CCOCC4)c(=O)o3)c2)cn1 [Example 176] | – | 98% | –
CCCCOc1ncc(-c2cnc(NC(=O)NCC)cc2-c2nc(C(F)(F)F)cs2)cc1-c1nnc(C)o1 [Example 41] | – | 109% | –
CCNC(=O)Nc1cc(-c2nc(C(F)(F)F)c(C(=O)NC3CC3)s2)c(-c2cncc(-c3nnc(C)o3)c2)cn1 [Example 66, N-cyclopropyl-2-(6-(3-ethylureido)-5′-(5-methyl-1,3,4-oxadiazol-2-yl)-3,3′-bipyridin-4-yl)-4-(trifluoromethyl)thiazole-5-carboxamide] | – | 93% | –
CCNC(=O)Nc1cc(-c2nc(-c3ccccc3)cs2)c(-c2cc(-c3n[nH]c(=O)o3)nc(N3CCOCC3)c2)cn1 [Example 88] | – | 94% | –
CCNC(=O)Nc1cc(-c2nc(C(F)(F)F)cs2)c(-c2cncc(-c3nnc(COCc4ccccc4)o3)c2)cn1 [Example 266, 1-(5′-(5-(benzyloxymethyl)-1,3,4-oxadiazol-2-yl)-4-(4-(trifluoromethyl)thiazol-2-yl)-3,3′-bipyridin-6-yl)-3-ethylurea] | – | 98% | –
CCNC(=O)Nc1cc(-c2nc(C(F)(F)F)c(CNC3CCCCC3)s2)c(-c2cncc(-c3n[nH]c(=O)o3)c2)cn1 [Example 52, 1-(4-(5-((cyclohexylamino)methyl)-4-(trifluoromethyl)thiazol-2-yl)-5′-(5-hydroxy-1,3,4-oxadiazol-2-yl)-3,3′-bipyridin-6-yl)-3-ethylurea hydrochloride] | – | 108% | –
CCNC(=O)Nc1cc(-c2nc(C(F)(F)F)cs2)c(-c2cc(-c3n[nH]c(=O)o3)cnc2OCCN(C)C)cn1 [Example 100, 1-(2′-(2-(Dimethylamino)ethoxy)-5′-(5-oxo-4,5-dihydro-1,3,4-oxadiazol-2-yl)-4-(4-(trifluoromethyl)thiazol-2-yl)-3,3′-bipyridin-6-yl)-3-ethylurea] | – | 98% | –
CCNC(=O)Nc1cc(-c2nc(-c3ccc(OC)nc3)cs2)c(-c2cncc(-c3n[nH]c(=O)o3)c2)cn1 [Example 203] | – | 104% | –
CCNC(=O)Nc1cc(-c2nc(C(F)(F)F)cs2)c(-c2cc(OC3CCN(C)CC3)nc(-c3n[nH]c(=O)o3)c2)cn1 [Example 90, 1-ethyl-3-(2′-(1-methylpiperidin-4-yloxy)-6′-(5-oxo-4,5-dihydro-1,3,4-oxadiazol-2-yl)-4-(4-(trifluoromethyl)thiazol-2-yl)-3,4′-bipyridin-6-yl)urea] | – | 116% | –
O=C(Nc1cc(-c2nc(C(F)(F)F)cs2)c(-c2cncc(-c3n[nH]c(=O)o3)c2)cn1)NC1CCCCC1 [Example 46, 1-cyclohexyl-3-(5′-(5-oxo-4,5-dihydro-1,3,4-oxadiazol-2-yl)-4-(4-(trifluoromethyl)thiazol-2-yl)-3,3′-bipyridin-6-yl)urea] | – | -1% | –
CCNC(=O)Nc1cc(-c2nc(-c3ccncc3)cs2)c(-c2cncc(-c3n[nH]c(=O)o3)c2)cn1 [Example 39, N-ethyl-N′-[5′-(5-oxo-4,5-dihydro-1,3,4-oxadiazol-2-yl)-4-(4-pyridin-4-yl-1,3-thiazol-2-yl)-3,3′-bipyridin-6-yl]urea] | – | 102% | –
CCNC(=O)Nc1cc(-c2nc(C(F)(F)F)cs2)c(-c2cccc(-n3cccn3)n2)cn1 [Example 29] | – | 114% | –
CCNC(=O)Nc1cc(-c2nc(C(F)(F)F)cs2)c(-c2cc(-c3nnc(C)o3)cnc2OCCN(C(C)C)C(C)C)cn1 [Example 116, 1-(2′-(2-(diisopropylamino)ethoxy)-5′-(5-methyl-1,3,4-oxadiazol-2-yl)-4-(4(trifluoromethyl)thiazol-2-yl)-3,3′-bipyridin-6-yl)-3-ethylurea] | – | 90% | –
CCNC(=O)Nc1cc(-c2nc(C(F)(F)F)cs2)c(-c2cc(-c3nnc(C)o3)cnc2OC(C)CN(C)C)cn1 (stereo not drawn) [Example 114, 1-(2′-(1-(Dimethylamino)propan-2-yloxy)-5′-(5-methyl-1,3,4-oxadiazol-2-yl)-4-(4-(trifluoromethyl)thiazol-2-yl)-3,3′-bipyridin-6-yl)-3-ethylurea] | – | 97% | –
CCNC(=O)Nc1cc(-c2nc(C(F)(F)F)cs2)c(-c2cncc(-c3nn(CCO)c(=O)o3)c2)cn1 [Example 162] | – | 98% | –
CCNC(=O)Nc1cc(-c2nc(C3CCOC(C)(C)C3)cs2)c(-c2cncc(-c3n[nH]c(=O)o3)c2)cn1 (stereo not drawn) [Example 212] | – | 97% | –
CCNC(=O)Nc1cc(-c2nc(C(F)(F)F)cs2)c(-c2cc(-c3nnc(C)o3)cnc2CC)cn1 [Example 73, 1-ethyl-3-(2′-ethyl-5′-(5-methyl-1,3,4-oxadiazol-2-yl)-4-(4-(trifluoromethyl)thiazol-2-yl)-3,3′-bipyridin-6-yl)urea] | – | 97% | –
CCNC(=O)Nc1cc(-c2nc(-c3ccccc3)cs2)c(-c2cncc(S(N)(=O)=O)c2)cn1 [Example 128] | – | 92% | –
CCNC(=O)Nc1cc(-c2nc(C(F)(F)F)cs2)c(-c2cncc(-c3nc(C)no3)c2)cn1 [Example 8] | – | 95% | –
CCNC(=O)Nc1cc(-c2nc(-c3ccccn3)cs2)c(-c2cncc(-c3n[nH]c(=O)o3)c2)cn1 [Example 10, N-ethyl-N′-[5′-(5-oxo-4,5-dihydro-1,3,4-oxadiazol-2-yl)-4-(4-pyridin-2-yl-1,3-thiazol-2-yl)-3,3′-bipyridin-6-yl]urea] | – | 95% | –
CCNC(=O)Nc1cc(-c2nc(C(F)(F)F)cs2)c(-c2cncc(-c3nnc(C(C)C)o3)c2)cn1 [Example 4] | – | 99% | –
CCNC(=O)Nc1cc(-c2nc(C(F)(F)F)c(C(=O)NCCN3CCOCC3)s2)c(-c2cncc(-c3n[nH]c(=O)o3)c2)cn1 [Example 61, 2-(6-(3-ethylureido)-5′-(5-oxo-4,5-dihydro-1,3,4-oxadiazol-2-yl)-3,3′-bipyridin-4-yl)-N-(2-morpholinoethyl)-4-(trifluoromethyl)thiazole-5-carboxamide] | – | 95% | –
